What all share (format): in vivo
Assay [1] has as its system C57BL/6 mice with UUO surgical ligation. Briefly: Example 2: UUO mice, renal function evaluation (plasma BUN, creatinine). Particulars: for Level of BUN compared to vehicle or other agents, in words: mg/kg PO QD: Telmisartan 3, Bemithyl 200, Repirinast 30, Telmisartan+Bemithyl 3+200, Telmisartan+Repirinast 3+30, Cenicriviroc 40, Bromantane 40; for BUN / Creatinine: plasma at sacrifice day 15, group mean, UUO, female C57BL/6 mice, PO QD days 1-14. As for the experimental part:
(§1) In this example, healthy young female C57BL/6 mice were used for the study. At the commencement of the study, mice were between 9-12 weeks of age, weighing 23-25 g. All the mice were obtained from Charles River Laboratories.
(§2) The mice were maintained in a controlled environment with a temp 70-72° F., humidity 30-70%, with a photo cycle of 12 hours of light and 12 hours of dark. They were provided with Harlan Teklad 2018 standard maintenance mouse chow diet and drinking water ad libitium.
(§3) After five days of acclimatization, the mice were grouped according to their body weight. There were ten groups of ten mice each. Nine groups of ten mice each underwent UUO as described above and the other group of ten mice underwent a sham procedure to serve as a no-surgery control.
(§4) Following surgery, the mice were divided into 10 individual study groups of 10 mice each and, following post-surgical recovery, administered a once-daily oral treatment for 14 days. The mice in 8 of the 10 study groups had all received the UUO surgical ligation and were treated individually with a distinct pharmacologic compound as set out in Table 6. The mice in 2 of the 10 study groups were treated individually with a pharmaceutically acceptable vehicle with no active ingredient. The pharmaceutically acceptable vehicle in all groups was 0.5% carboxymethyl cellulose (CMC). All mice were sacrificed with CO2 on post-surgical day 15.
(§5) The dose selected for the animal studies was determined by taking the maximum known human daily dose, dividing by the average weight of an adult (˜60-70 kg) to get a human mg/kg dose. That number was multiplied by 12 to convert to a mouse dose based on conventional dosing tables. See Nair and Jacob, J Basic Clin Pharm March 2016-May 2016, 7(2):27-31.
Serum collection: A blood sample was then collected from all mice and plasma analyzed for urea nitrogen and creatinine. Plasma was stored at −80° C. for possible future analysis.
(§6) The data are presented as the mean obtained from Microsoft Excel or GraphPad Prism version 5.00 for Windows (GraphPad Software, San Diego California USA). Data were analyzed using two-way ANOVA using Bonferroni and Tamhane post-tests. Differences between groups were considered significant at p<0.05.
Renal Function Evaluation: Renal function and disease progression was evaluated by BUN (blood urea nitrogen) as previously described. The BUN of each study group consisted of the BUN average of all mice in each study group.

For assay [2] the test system is unchanged. Briefly: Example 1: UUO mice, renal fibrosis evaluation (Sirius Red histology score). Particulars: Bemithyl 200, Emoxypine 160, Suplatast Tosylate 60, Udenafil 40, Telmisartan 5 mg/kg PO QD. Here is the method:
Male 9-12 week old C57BL/6 mice of 23-25 grams body weight were used. All mice were acclimated for a minimum of 5 days prior to the start of the study and housed individually in microisolators throughout the study in a 12:12 light-dark cycle on a standard maintenance mouse chow diet (Harlan Teklad 2018) with food and water given ad libitum. Prior to surgery, all mice were weighed for baseline body weight.
The UUO surgical intervention was performed according to previously described methods known in the art (Le Meur Y et al., Macrophage accumulation at a site of renal inflammation is dependent on the M-CSF/c-fms pathway, J Leukocyte Biol., 72:530-537; 2002).
All mice were first anesthetized by intraperitoneal injection with a rodent cocktail (ketamine 10 mg/mL and Xyaline 1 mg/mL) in normal saline (10 μL/g body weight). Pedal reflex and movement of the vibrissae were used to determine the state of unconsciousness. A state of unconsciousness was confirmed after a period of about 5 minutes in all animals. All mice were then shaved on the left side of the abdomen. The shaved area was first swabbed with iodine and then swabbed with alcohol. A vertical incision was made through the skin with a #22 scalpel and the skin was then retracted. A further incision of about 2.5 cm was then made through the peritoneum avoiding any major blood vessels. The peritoneum was then retracted and the left kidney was exposed.
The left kidney was then brought to the surface by hooking the ureter directly beneath the kidney with sterile forceps and gently manipulating the kidney upward. The ureter was ligated at two points directly below the kidney with 5-0 surgical silk with excess suture cut away and discarded post-ligation. The kidney was then gently placed back to its correct anatomical position and the abdomen was lavaged with 1 mL sterile saline to replenish fluid loss. The peritoneum and then skin were sutured with 5-0 Mersilene, and the incision site was gently wiped with iodine. All mice were then placed individually in clean cages that were set on top of a thermal blanket until recovery at about 30-60 minutes later. In some examples, sham surgery was performed as a control by following all steps of the UUO surgical intervention procedure except ligation.
Following surgery, the mice were divided into 14 individual study groups of 8 mice each and, following post-surgical recovery, administered a once-daily oral treatment for 14 days. The mice in 12 of the 14 study groups (hereafter known as “treatment groups”) had all received the UUO surgical ligation and were treated individually with a distinct pharmacologic compound as set out in Table 1. The mice in 2 of the 14 study groups were treated individually with a pharmaceutically acceptable vehicle with no active ingredient. The pharmaceutically acceptable vehicle in all groups was 0.5% carboxymethyl cellulose (CMC). All mice were sacrificed with CO2 on post-surgical day 15.
The dose selected for the animal studies was determined by taking the maximum known human daily dose, dividing by the average weight of an adult (˜60-70 kg) to get a human mg/kg dose. […]
Histopathology: Formalin-fixed kidney cross-section samples were subjected histopathological scoring with Sirius Red staining, and imaged at a magnification of ×20, using standard techniques. All three sections were stained and evaluated. […] The presence of interstitial damage and severity score was assessed according to the following criteria: 0=normal, 1=light, 2=moderate, 3=severe. […]

For assay [3] the test system is unchanged. As to the kind of experiment: Example 2: UUO mice, renal fibrosis evaluation (Sirius Red histology score). Particulars: for Level of kidney fibrosis / histology score compared to vehicle or other agents, in words: mg/kg PO QD: Telmisartan 3, Bemithyl 200, Repirinast 30, Telmisartan+Bemithyl 3+200, Telmisartan+Repirinast 3+30, Cenicriviroc 40, Bromantane 40; for Histology Score: Sirius Red, 0=normal, 1=light, 2=moderate, 3=severe, group mean; for Histology Score / Reduction of fibrosis (%) (versus vehicle): UUO, female C57BL/6 mice, PO QD days 1-14; for Reduction of fibrosis (%) (versus vehicle): from histology score. As for the experimental part: as §1, §2, §3, §4, §5
Histopathology: Formalin-fixed kidney cross-section samples were subjected histopathological scoring with Sirius Red staining, and imaged at a magnification of ×20, using standard techniques. All three sections were stained and evaluated. The analysis was performed by a board-certified veterinarian pathologist. The presence of interstitial damage and severity score was assessed according to the following criteria: 0=normal; 1=light; 2=moderate; 3=severe.
as §6
Renal Fibrosis Evaluation: Renal fibrosis and interstitial damage was evaluated by histochemical staining of renal cross-sections with Sirius Red as previously described. The Histology Score of each study group consisted of the histology score average of all mice in each study group.

The mark [4] stands for this setting: * significant vs vehicle Bonferroni, # Tamhane (p<0.05), mg/kg: Telmisartan 3, Bemithyl 200, Repirinast 30, Telmisartan+Bemithyl 3+200, Telmisartan+Repirinast 3+30, Cenicriviroc 40, Bromantane 40.
Setting [5] is: mg/kg: Telmisartan 3, Bemithyl 200, Repirinast 30, Telmisartan+Bemithyl 3+200, Telmisartan+Repirinast 3+30, Cenicriviroc 40, Bromantane 40.
Where [6] appears, read: Example 2, Repirinast 90 mg/kg PO QD.

SMILES strings stand for the structures. Entries after “also recorded” stand apart in the source; their conditions may differ. Marks after values point to notes of the source that are not given here.

For `CCCc1nc2c(C)cc(-c3nc4ccccc4n3C)cc2n1Cc1ccc(-c2ccccc2C(=O)O)cc1` [Telmisartan, 2-(4-{[4-Methyl-6-(1-methyl-1H-1,3-benzodiazol-2-yl)-2-propyl-1H-1,3-benzodiazol-1-yl]methyl}phenyl)benzoic acid], in assay [1] (Example 2), the “Level of BUN compared to vehicle or other agents, in words” value is recorded as “did not reduce levels of BUN; also recorded: did not show significant reductions”. In addition, the BUN in assay [1] (setting [4]) turned out to be 23.5 mg/dL. Further, in assay [1] (setting [5]), the Creatinine was found to be 0.20 mg/dL. Also, the “Kidney fibrosis / Histology Score, significance and comparison in words” value in assay [2] is “significant reduction; also recorded: reduction in BUN levels and fibrosis”. In addition, the “Level of kidney fibrosis / histology score compared to vehicle or other agents, in words” value in assay [3] (Example 2) is given as “statistically insignificant improvements; also recorded: did not show significant reductions”. Further, in assay [3] (setting [5]), the “Histology Score” value was 1.62*# and the “Reduction of fibrosis (%) (versus vehicle)” value (“Reduction of fibrosis (%)” below) worked out at 33%.

Regarding `Cc1ccc2c([nH]c(=O)c3c(=O)cc(C(=O)OCCC(C)C)oc32)c1C` [Repirinast, 3-methylbutyl 7,8-dimethyl-4,5-dioxo-5,6-dihydro-4H-pyrano[3,2-c]quinoline-2-carboxylate], the “Level of BUN compared to vehicle, in words” value in assay [1] (setting [6]) was “significant reductions in the level of BUN compared to vehicle; also recorded: reduction in BUN compared to vehicle”. The “Level of BUN compared to vehicle or other agents, in words” value in assay [1] (Example 2) is listed as “significant reductions in the level of BUN compared to vehicle”. For the same compound, the BUN in assay [1] (setting [4]) is reported as 18.5*# mg/dL; in assay [1] (Repirinast 90 mg/kg), 17.6*# mg/dL. For the same compound, the Creatinine in assay [1] (Repirinast 90 mg/kg) and in assay [1] (setting [5]) was 0.20 mg/dL in each case. The “Level of kidney fibrosis compared to vehicle, in words” value in assay [3] (setting [6]) is reported as “significantly reduce the level of kidney fibrosis compared to vehicle; also recorded: significant improvement in kidney fibrosis”. Also, in assay [3] (Example 2), the “Level of kidney fibrosis / histology score compared to vehicle or other agents, in words” value is listed as “statistically insignificant improvements”. Also, the “Histology Score” value in assay [3] (Repirinast 90 mg/kg) was 1.19*#; in assay [3] (setting [5]), 1.90. Also, the “Reduction of fibrosis (%)” value in assay [3] (Repirinast 90 mg/kg) is given as 51%; in assay [3] (setting [5]), 21%.

Consider `CCSc1nc2ccccc2[nH]1` [Bemithyl, 2-Ethylsulfanyl-1H-benzoimidazole], for which the “Level of BUN compared to vehicle or other agents, in words” value in assay [1] (Example 2) was “significant reductions in the level of BUN compared to vehicle; also recorded: reduction in BUN compared to vehicle”. The BUN in assay [1] (setting [4]) is 19.4* mg/dL. In assay [1] (setting [5]), this compound registered a Creatinine of 0.20 mg/dL. For the same compound, the “Kidney fibrosis / Histology Score, significance and comparison in words” value in assay [2] is given as “decreased in comparison to the positive control treatment group; also recorded: significant reductions in kidney fibrosis; also recorded: significant improvement in kidney fibrosis”. The “Level of kidney fibrosis / histology score compared to vehicle or other agents, in words” value in assay [3] (Example 2) is “significantly reduce the level of kidney fibrosis compared to vehicle; also recorded: significant improvement in kidney fibrosis”. Besides, in assay [3] (setting [5]), the “Histology Score” value is reported as 1.15** and the “Reduction of fibrosis (%)” value was determined as 52%.

In the case of `Brc1ccc(NC2C3CC4CC(C3)CC2C4)cc1` (centres unmarked) [Bromantane, N-(4-Bromophenyl)adamantan-2-amine], the “Level of BUN compared to vehicle or other agents, in words” value in assay [1] (Example 2) is “significant reductions in the level of BUN compared to vehicle; also recorded: most effective compound tested; also recorded: superior to Telmisartan; also recorded: reduction in BUN compared to vehicle; also recorded: highest reductions in both fibrosis and BUN levels”. The BUN in assay [1] (setting [4]) is recorded as 17.3** mg/dL. In assay [1] (setting [5]), this compound returned a Creatinine of 0.20 mg/dL. For the same compound, in assay [3] (Example 2), the “Level of kidney fibrosis / histology score compared to vehicle or other agents, in words” value was “significantly reduce the level of kidney fibrosis compared to vehicle; also recorded: greatest numerical reduction in the histology score; also recorded: superior to both Telmisartan; also recorded: significant improvement in kidney fibrosis; also recorded: highest reductions in both fibrosis and BUN levels”. In assay [3] (setting [5]), the “Histology Score” value is reported as 1.02*# and the “Reduction of fibrosis (%)” value is on record as 58%.

The record behind these values is patent US12280026B2, “Use of repirinast in the prophylaxis or treatment of renal fibrosis or kidney disease” (ALGERNON PHARMACEUTICALS INC., priority 2018, dated 2025).
